The results in this text go back to patent publication US4440757A, “Pharmaceutical composition comprising derivative of aminobenzoic acid for regulating prostaglandin” (priority 1978, dated 1984).

A short description of data set [1]: Acute oral toxicity (Litchfield-Wilcoxon). The note with it: in vivo, mouse, 7 days. How it is done: The acute oral toxicity of the present substances were examined by using groups of ICR-JCL mouse and orally administering each of the representatives of present substances forcibly as an aqueous solution in distilled water or as an aqueous suspension also in distilled water at predetermined dosages, respectively. After observing the toxicological symptoms, if any, for 6 days, and recording the mortality until 7th day of the administration, LD50 (acute oral) was calculated by the method of Litchfield-Wilcoxon, and autopsy was carried out on dead mice and live mice to obtain informations.

Data set [2] has as its system Salmonella typhimurium TA 100. In words: Mutagenicity, reversion assay, TA 100. The format is cell-based. How it is done: (§1) (ii) The strains TA 98 and TA 100 (both are histidine requiring) of Salmonella typhimurium were used in the reversion assay.
(§2) Into 2 ml of a soft agar culture medium (the medium itself contains 6 g of sodium chloride and 6 g of agar in 1000 ml of distilled water) to which one tenth by volume of an aqueous solution of 0.5 mM of biotin and 0.5 mM of histidine had been added, 0.1 ml of the bacterial suspension and 0.1 ml of an aqueous solution of the present substance were admixed and the mixture was layered on the minimum agar culture medium. After 2 days of incubation at 37° C., the number of revertant colonies was counted. Furylfuramide (AF-2) was used as the positive control.

Data set [3] relates to Salmonella typhimurium TA 98. The data set is described as follows: Mutagenicity, reversion assay, TA 98. The format is cell-based. How it is done:
as §1, §2

For data set [4], the system named is dog's stomach. The format is in vivo, Beagle dog. How it is done:
Five grams of the present substance (each of Specimens Nos. 1, 2, 3, 4, 5, 6, 7, 8, 9, 10 and 11) and of aspirin were respectively administered to each Beagle of body weight of 9 to 12 kg as an aqueous suspension in distilled water of adjusted pH of 3, and after 90 min of the administration, the state of hemorrhage in the dog's stomach was examined.

In data set [5] the test system is Ehrlich cancer. The data set is described as follows: Cancer proliferation and PGE in the cancer cells (Ehrlich). The format is in vivo, C57BL/6 mouse. The following applies: 100 mg/kg i.p. every other day, 14th day; for Weight of cancer: control 1.30; for Content of PGE in the cancer: control 1.77. How it is done: Following the same method as in Example 12, the anti-cancer action against transplanted Ehrlich cancer in C57BL/6 mouse, and the amount of PGE in the cancer cells in proliferation in the living body of the mouse were examined in the cases where each one compound of the present invention, Specimens Nos. 1, 2, 3, 4, 5, 6, 8, 9, 10 and 11 was intraperitoneally administered every other day from the next day of the transplantation in total 6 times at a dosage of 100 mg/kg.
The results of determination of the weight of cancer extirpated from the sacrificed mouse on 14th day of the transplantation of the cancer cells, 1×10^6 in number per animal, and content of PGE of the extirpated cancer are shown in the following Table 13: […]

Data set [6] has as its system Bacillus subtilis M 45. In words: Mutagenicity, rec-assay, strain M 45. The format is cell-based. The following applies: 10 μg/disk, negative control. How it is done: (§3) As the first stage, the present substances were tested by rec-assay (i), and as the second stage, they were tested by reversion assay (ii).
(§4) (i) A strain of Bacillus subtilis M 45, a defectant of recombination repair, and a wild strain of Bacillus subtilis H 17 keeping recombination repair activity were inoculated to make their own streaks not crossed at the start on a B-2 agar culture plate (made by dissolving 10 g of meat extract, 10 g of polypeptone, 5 g of sodium chloride and 15 g of agar in 1000 ml of distilled water at pH 7.0). Then, a paper disc of 8 mm in diameter, which absorbed 0.04 ml of an aqueous solution of the present substance in sterilized water was put on the surface of the agar plate so as to cover the starting point of the above-mentioned streaks of bacterial culture. The inoculated B-2 agar plate was kept at 37° C. for a night and the length of growth-inhibited region was measured.

For data set [7], the system named is Bacillus subtilis H 17. The data set is described as follows: Mutagenicity, rec-assay, strain H 17. The format is cell-based. The note with it: 10 μg/disk, negative control. How it is done: as §3, §4
Data set [8] deals with male Sprague-Dowley rats. The data set is described as follows: Foot-oedema induced by carrageenin and PGE1. It counts as in vivo. The note with it: challenge agents only, no present substance; 60 min. How it is done: The three groups of male Sprague-Dowley rats of total six groups, the respective present substances, Specimens Nos. 4, 7 and 8 were administered forcibly by oral route at a rate of 1000 mg/kg, the other three groups of the same kind of rats being administered nothing at this time.
After 60 min of the administration, 0.1 ml of an aqueous solution of carrageenin (1 mg) and PGE1 (0.1 μg) was injected onto the hind paw of the four groups of the rats including the three groups administered with the present substance. To one group of remaining two groups not administered with the present substance, 0.1 ml of an aqueous solution containing only carrageenin at 1% was injected, and to the other one group not administered with the present substance, an aqueous solution containing only PGE1 was injected.
The volume of the thus swollen foot of the groups of the thus treated rats was measured by the water-displacement method, and the results are shown in Table 17 by the increment of the volume of foot as compared to the volume of foot before the treatment as percentage.

The test system of data set [9] is male Sprague-Dowley rats. In words: Leakage of dye-staff after skin stimulation with histamine and PGE1. The note with it: challenge agents only, no present substance. It counts as in vivo. How it is done: To the three groups of male Sprague-Dowley rats of the total six groups, the respective present substances (Specimens Nos. 4, 7 and 8) were forcibly administered by oral route at the rate of 1000 mg/kg, the other three groups being administered nothing at this time. After 60 min of the administration, a mixture of PGE1 (2.5×10^-11 mol/animal) and histamine (2×10^-8 mol/animal) was intracutaneously injected under light […] into the shaved skin of an abdominal part of four groups of the rats including three groups administered with the present substance.

Read-outs that look alike come from different tables or passages of the source.

`O=C(O)c1ccc(NC2O[C@H](CO)[C@@H](O)[C@H](O)[C@H]2O)cc1` (stereo partly drawn) [Specimen No. 5, Sodium p-aminobenzoate-N--D-glucoside]: in [1], the 50% lethal dose (LD50) at 168 h was > 15000 mg/kg. Moreover, the “Number of revertant colonies TA 100” value in [2] (5,000 μg/plate, control 149) was determined as 104 number per plate. Also, the “Number of revertant colonies TA 98” value in data set [3] (5,000 μg/plate, control 13) is listed as 11 number per plate. In addition, the “hemorrhage in the stomach” value in data set [4] (dog, in vivo) is “no hemorrhage in the stomach was found”. In [5], the Weight of cancer turned out to be 0.70 g and the “Content of PGE in the cancer” value was determined as 3.20 ng/g.

On to `NC(=O)C(=Cc1ccc([N+](=O)[O-])o1)c1ccco1` [Furylfuramide, reference compound], for which, in data set [2] (0.1 μg/plate, positive control), the “Number of revertant colonies TA 100” value was 911 number per plate. In data set [3] (0.1 μg/plate, positive control), the “Number of revertant colonies TA 98” value is 167 number per plate.

In the case of `CC(=O)Oc1ccccc1C(=O)O` [aspirin, reference compound], the “hemorrhage in the stomach” value in data set [4] (5 g, 90 min after administration) is “hemorrhage in the stomach was observed”.

On to `NC[C@H]1O[C@H](O[C@H]2[C@H](O)[C@@H](O[C@H]3O[C@H](CO)[C@@H](O)[C@H](N)[C@H]3O)[C@H](N)C[C@@H]2N)[C@H](O)[C@@H](O)[C@@H]1O` [Kanamycin], for which, in [6], the “Length of inhibition growth zone M 45” value was 5 mm and the “difference (M 45 minus H 17)” value came out at 1 mm. For the same compound, the “Length of inhibition growth zone H 17” value in data set [7] was 4 mm.

`C[C@@H]1OC(Nc2ccccc2C(=O)O)[C@H](O)[C@H](O)[C@H]1O` (stereo partly drawn) [Specimen No. 2, Sodium o-aminobenzoate-N--L-rhamnoside]: the LD50 at 168 h in data set [1] stood at 12500 mg/kg. For the same compound, the “Number of revertant colonies TA 100” value in data set [2] (5,000 μg/plate, control 149) turned out to be 61 number per plate. Further, the “Number of revertant colonies TA 98” value in [3] (5,000 μg/plate, control 13) is given as 9 number per plate. Besides, the “hemorrhage in the stomach” value in data set [4] (dog, in vivo) is given as “no hemorrhage in the stomach was found”. Further, in data set [5], the Weight of cancer turned out to be 0.81 g and the “Content of PGE in the cancer” value came to 3.88 ng/g.

For `O=C(O)c1ccc(NC2O[C@H](CO)[C@H](O)[C@H](O)[C@H]2O)cc1` (stereo partly drawn) [Specimen No. 6, Sodium p-aminobenzoate-N--D-galactoside], the LD50 at 168 h in data set [1] was found to be 14600 mg/kg. Further, the “Number of revertant colonies TA 100” value in [2] (5,000 μg/plate, control 149) came out at 51 number per plate. For the same compound, the “Number of revertant colonies TA 98” value in data set [3] (5,000 μg/plate, control 13) came out at 7 number per plate. In addition, in data set [4] (dog, in vivo), the “hemorrhage in the stomach” value is “no hemorrhage in the stomach was found”. Further, in data set [5], the Weight of cancer came to 0.65 g and the “Content of PGE in the cancer” value stood at 3.66 ng/g.

As for `O=C(O)c1cccc(NC2O[C@H](CO)[C@@H](O)[C@H](O)[C@@H]2O)c1` (stereo partly drawn) [Specimen No. 3, Sodium m-aminobenzoate-N--D-mannoside], in data set [1], the LD50 at 168 h is > 10000 mg/kg. Besides, the “Number of revertant colonies TA 100” value in data set [2] (5,000 μg/plate, control 149) worked out at 90 number per plate. Also, the “Number of revertant colonies TA 98” value in data set [3] (5,000 μg/plate, control 13) is 6 number per plate. Besides, the “hemorrhage in the stomach” value in data set [4] (dog, in vivo) is reported as “no hemorrhage in the stomach was found”. In data set [5], the Weight of cancer is listed as 0.74 g and the “Content of PGE in the cancer” value was determined as 4.23 ng/g.

Take `COC(=O)c1ccccc1NC1O[C@H](CO)[C@@H](O)[C@H](O)[C@@H]1O` (stereo partly drawn) [Specimen No. 11, Methyl o-aminobenzoate-N--D-mannoside]: the median lethal dose (LD50) at 168 h in [1] was > 7500 mg/kg. For the same compound, the “Number of revertant colonies TA 100” value in data set [2] (5,000 μg/plate, control 149) was 95 number per plate. For the same compound, in [3] (5,000 μg/plate, control 13), the “Number of revertant colonies TA 98” value worked out at 8 number per plate. The “hemorrhage in the stomach” value in [4] (dog, in vivo) is on record as “no hemorrhage in the stomach was found”. Besides, in data set [5], the Weight of cancer is recorded as 0.69 g and the “Content of PGE in the cancer” value was determined as 4.20 ng/g.

As for `O=C(O)c1ccc(NC2OC[C@H](O)[C@H](O)[C@H]2O)cc1` (stereo partly drawn) [Specimen No. 10, Sodium p-aminobenzoate-N--L-arabinoside], the LD50 at 168 h in data set [1] stood at 10800 mg/kg. In addition, the “Number of revertant colonies TA 100” value in [2] (5,000 μg/plate, control 149) was found to be 51 number per plate. Besides, in data set [3] (5,000 μg/plate, control 13), the “Number of revertant colonies TA 98” value turned out to be 3 number per plate. The “hemorrhage in the stomach” value in data set [4] (dog, in vivo) is “no hemorrhage in the stomach was found”. In data set [5], the Weight of cancer came to 0.70 g and the “Content of PGE in the cancer” value was determined as 4.14 ng/g.

As for `O=C(O)c1ccc(NC2(CO)OC[C@@H](O)[C@@H](O)[C@@H]2O)cc1` (stereo partly drawn) [Specimen No. 9, Sodium p-aminobenzoate-N--D-fructoside], the LD50 at 168 h in data set [1] is > 10000 mg/kg. Moreover, the “Number of revertant colonies TA 100” value in data set [2] (5,000 μg/plate, control 149) is recorded as 95 number per plate. Further, in data set [3] (5,000 μg/plate, control 13), the “Number of revertant colonies TA 98” value worked out at 5 number per plate. Besides, the “hemorrhage in the stomach” value in data set [4] (dog, in vivo) is “no hemorrhage in the stomach was found”. Further, in [5], the Weight of cancer turned out to be 0.80 g and the “Content of PGE in the cancer” value worked out at 4.32 ng/g.

On to `CCCCC[C@H](O)/C=C/[C@H]1[C@H](O)CC(=O)[C@@H]1CCCCCCC(=O)O` [PGE1, reference compound], for which the “Percentage increment of volume of foot” value in [8] amounted to 9.3%. In addition, in data set [9], the “Absorbance at 620 nm (dye leakage)” value amounted to 0.066.

In data set [1], `O=C(O)c1ccccc1NC1O[C@H](CO)[C@H](O)[C@H](O)[C@H]1O` (stereo partly drawn) [Specimen No. 1, Sodium o-aminobenzoate-N--D-galactoside] yielded a 50% lethal dose (LD50) at 168 h of 6100 mg/kg. Moreover, the “Number of revertant colonies TA 100” value in data set [2] (5,000 μg/plate, control 149) stood at 151 number per plate. In data set [3] (5,000 μg/plate, control 13), the “Number of revertant colonies TA 98” value was 6 number per plate. In addition, the “hemorrhage in the stomach” value in data set [4] (dog, in vivo) is on record as “no hemorrhage in the stomach was found”. Moreover, in data set [5], the Weight of cancer was 0.63 g and the “Content of PGE in the cancer” value is reported as 4.10 ng/g.

As for `NCCc1c[nH]cn1` [Histamine, histamine, reference compound], in data set [9], the “Absorbance at 620 nm (dye leakage)” value worked out at 0.192.
